Calls of active or inactive are those of the source. The calls are words filed in the database; no cut-off is given here.
Columns and labels:
[1] = Toxicity in BALB/c syngenic mouse bearing CT26 cells assessed as effect on body weight at 0.015 to 1.5 mg/kg, iv measured every 2 to 3 days for 17 days; format: organism-based; conditions: in vivo, 408 h, dose 0.015-1.5 mg/kg, time 17 day
[2] = Activation of IRF-mediated immune response in human THP1-Dual KO-STING cells co-expressing ISRE reporter assessed as normalized luciferase gene expression by measuring relative luciferase units at 50 uM incubated for 24 hrs by QUANTI Luc based microplate reader method; format: functional
[3] = molecular target: T1, Stimulator of interferon genes protein (Homo sapiens, UniProt Q86WV6); test: Binding affinity to recombinant human His-tagged STING by measuring fluorescent signals in the presence of d2 labelled STING wild type ligand by HTRF based microplate reader analysis
[4] = molecular target: T2, Stimulator of interferon genes protein (Mus musculus) (UniProt Q3TBT3); test: Binding affinity to STING in mouse RAW264.7 assessed as thermal stabilization at 48 to 55 degC at 100 nM incubated for 4 hrs by western blotting based CETSA assay; format: cell-based; conditions: filed as activator
T2 sequence (whole entry): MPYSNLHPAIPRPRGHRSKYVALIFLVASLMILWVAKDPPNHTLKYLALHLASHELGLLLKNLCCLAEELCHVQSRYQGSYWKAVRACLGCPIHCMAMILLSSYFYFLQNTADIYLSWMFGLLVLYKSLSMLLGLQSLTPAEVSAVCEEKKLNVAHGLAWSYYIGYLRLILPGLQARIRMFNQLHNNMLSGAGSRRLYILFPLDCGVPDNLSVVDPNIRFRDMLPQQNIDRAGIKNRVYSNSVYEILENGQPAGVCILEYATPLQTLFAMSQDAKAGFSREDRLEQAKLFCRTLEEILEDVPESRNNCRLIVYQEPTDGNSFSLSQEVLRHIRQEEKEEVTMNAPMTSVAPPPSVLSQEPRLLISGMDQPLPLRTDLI

[5] = molecular target: Cytochrome P450 3A4 (Homo sapiens, UniProt P08684); test: Inhibition of CYP3A4 in human liver microsomes using […] as cocktail probe substrate preincubated for 5 mins followed by NADPH addition and measured after 30 mins by HPLC-MS/MS analysis; format: ADME, Microsome
[6] = molecular target: Voltage-gated inwardly rectifying potassium channel KCNH2 (Homo sapiens, UniProt Q12809); test: Inhibition of hERG by patch clamp assay; format: toxicity
[7] = Stability in mouse liver microsome assessed as parent compound remaining at 1 uM measured after 30 mins in the presence of NADPH by HPLC-MS/MS analysis; format: ADME; conditions: liver microsomes, read-out: Stability
[8] = Stability in human liver microsome assessed as parent compound remaining at 1 uM measured after 30 mins in the presence of NADPH by HPLC-MS/MS analysis; format: ADME; conditions: liver microsomes, read-out: Stability
[9] = Stability in human plasma assessed as parent compound remaining at 5 uM measured after 4 hrs by HPLC-MS/MS analysis; format: ADME, cell-free; conditions: read-out: Stability
[10] = molecular target: T1, Stimulator of interferon genes protein; test: Activation of STING mediated immune response in human THP-1 cells assessed as induction of IFNbeta secretion measured after 24 hrs by ELISA; format: cell-based
[11] = molecular target: T1, Stimulator of interferon genes protein; test: Activation of STING mediated immune response in human THP-1 cells assessed as induction of IP-10 secretion measured after 24 hrs by ELISA; format: cell-based; conditions: filed as activator, dose 0.41-100 nM, DDE = dose-dependent effect
[12] = molecular target: T2, Stimulator of interferon genes protein (Mus musculus); test: Activation of STING mediated immune response in mouse RAW264.7 cells assessed as induction of IP-10 secretion measured after 24 hrs by ELISA; format: cell-based; conditions: filed as activator, dose 0.32-5000 nM, DDE = dose-dependent effect
[13] = molecular target: T1, Stimulator of interferon genes protein; test: Activation of STING dependent immune response in wild type human THP1-Dual cells assessed as induction of IFN-beta secretion at 1.28 to 3.2 nM measured after 24 hrs by ELISA; format: cell-based; conditions: filed as activator, dose 1.28-3.2 nM
[14] = molecular target: T1, Stimulator of interferon genes protein; test: Activation of STING pathway in human THP-1 cells assessed as increase in TBK1 phosphorylation at 2 nM incubated for 6 hrs by Western blotting analysis; format: cell-based; conditions: filed as activator
[15] = molecular target: T1, Stimulator of interferon genes protein; test: Activation of STING pathway in human THP1-cells assessed as increase in IRF3 phosphorylation at 2 nM incubated 6 hrs by Western blotting analysis; format: cell-based; conditions: THP-1, filed as activator
[16] = molecular target: T1, Stimulator of interferon genes protein; test: Activation of STING pathway in human THP1-cells assessed as increase in STAT1 phosphorylation at 2 nM incubated for 6 hrs by Western blotting analysis; format: cell-based; conditions: THP-1, filed as activator
[17] = tested on: THP-1; test: Upregulation of IFNB in human THP-1 cells at 100 nM measured after 6 hrs by RT-PCR analysis; format: functional, cell-based
[18] = tested on: THP-1; test: Upregulation of CXCL10 in human THP-1 cells at 100 nM measured after 6 to 18 hrs by RT-PCR analysis; format: functional, cell-based; conditions: time 6-18 hrs
[19] = tested on: THP-1; test: Upregulation of OAS1 in human THP-1 cells at 100 nM measured after 6 to 18 hrs by RT-PCR analysis; format: functional, cell-based; conditions: time 6-18 hrs
[20] = tested on: THP-1; test: Upregulation of IRF7 in human THP-1 cells at 100 nM measured after 6 to 18 hrs by RT-PCR analysis; format: functional, cell-based; conditions: time 6-18 hrs
[21] = tested on: Mus musculus; test: Upregulation of IFN-beta in BALB/c mouse serum at 1.5 mg/kg, iv measured after 4 hrs by ELISA; format: functional, organism-based
[22] = tested on: Mus musculus; test: Upregulation of IL-6 in BALB/c mouse serum at 1.5 mg/kg, iv measured after 4 hrs by ELISA; format: functional, organism-based
[23] = molecular target: Nuclear factor NF-kappa-B complex (Homo sapiens) (UniProt Q00653+P19838+Q04206); test: Activation of NF-kappaB mediated pro-inflammatory effector proteins in human THP-1 cells at 2 to 10 nM incubated for 4 hrs by western blot analysis; format: cell-based; conditions: filed as activator, dose 2-10 nM
[24] = tested on: RAW264.7; test: Activation of NF-kappaB mediated pro-inflammatory effector proteins in mouse RAW264.7 cells at 100 to 500 nM for incubated for 3 hrs by western blot analysis; format: cell-based; conditions: filed as activator, dose 100-500 nM
[25] = Clearance in BALB/c mouse at 3 mg/kg, iv by LC-MS/MS analysis; format: ADME, organism-based; conditions: in vivo, iv, 3 mg/kg
[26] = AUClast in BALB/c mouse at 3 mg/kg, iv by LC-MS/MS analysis; format: ADME, organism-based; parameters: time 0 - last, dose 3 mg/kg, route iv; conditions: in vivo
[27] = AUCinfinity in BALB/c mouse at 3 mg/kg, iv by LC-MS/MS analysis; format: ADME, organism-based; parameters: time infinity, dose 3 mg/kg, route iv; conditions: in vivo
[28] = tested on: CT26; test: Antitumor immunity activity against mouse CT26 cells xenografted in BALB/c mouse model assessed as tumor growth inhibition at 1.5 mg/kg, iv measured after 8 days; format: functional, organism-based; conditions: time 8.0 day
[29] = Toxicity in BALB/c mouse xenografted with mouse CT26 cells assessed as effect on body weight at 1.5 mg/kg, iv measured after 8 days; format: organism-based; conditions: in vivo, 192 h, time 8 day
[30] = molecular target: T1, Stimulator of interferon genes protein; conditions: THP1-Dual, filed as activator, dose 50.0 µM, time 24.0 hrs

T1 sequence (Q86WV6 whole entry): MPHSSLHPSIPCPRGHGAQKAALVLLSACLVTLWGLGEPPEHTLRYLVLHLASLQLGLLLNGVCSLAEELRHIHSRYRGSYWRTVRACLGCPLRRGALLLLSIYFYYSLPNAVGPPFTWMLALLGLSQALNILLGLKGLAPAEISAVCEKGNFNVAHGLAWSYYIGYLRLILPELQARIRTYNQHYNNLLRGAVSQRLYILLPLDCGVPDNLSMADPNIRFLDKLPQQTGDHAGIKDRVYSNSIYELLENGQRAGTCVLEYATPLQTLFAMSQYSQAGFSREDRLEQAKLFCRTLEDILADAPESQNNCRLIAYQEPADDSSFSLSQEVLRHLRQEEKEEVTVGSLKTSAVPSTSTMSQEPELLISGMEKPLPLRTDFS
Chain of Voltage-gated inwardly rectifying potassium channel KCNH2 (Q12809 whole entry): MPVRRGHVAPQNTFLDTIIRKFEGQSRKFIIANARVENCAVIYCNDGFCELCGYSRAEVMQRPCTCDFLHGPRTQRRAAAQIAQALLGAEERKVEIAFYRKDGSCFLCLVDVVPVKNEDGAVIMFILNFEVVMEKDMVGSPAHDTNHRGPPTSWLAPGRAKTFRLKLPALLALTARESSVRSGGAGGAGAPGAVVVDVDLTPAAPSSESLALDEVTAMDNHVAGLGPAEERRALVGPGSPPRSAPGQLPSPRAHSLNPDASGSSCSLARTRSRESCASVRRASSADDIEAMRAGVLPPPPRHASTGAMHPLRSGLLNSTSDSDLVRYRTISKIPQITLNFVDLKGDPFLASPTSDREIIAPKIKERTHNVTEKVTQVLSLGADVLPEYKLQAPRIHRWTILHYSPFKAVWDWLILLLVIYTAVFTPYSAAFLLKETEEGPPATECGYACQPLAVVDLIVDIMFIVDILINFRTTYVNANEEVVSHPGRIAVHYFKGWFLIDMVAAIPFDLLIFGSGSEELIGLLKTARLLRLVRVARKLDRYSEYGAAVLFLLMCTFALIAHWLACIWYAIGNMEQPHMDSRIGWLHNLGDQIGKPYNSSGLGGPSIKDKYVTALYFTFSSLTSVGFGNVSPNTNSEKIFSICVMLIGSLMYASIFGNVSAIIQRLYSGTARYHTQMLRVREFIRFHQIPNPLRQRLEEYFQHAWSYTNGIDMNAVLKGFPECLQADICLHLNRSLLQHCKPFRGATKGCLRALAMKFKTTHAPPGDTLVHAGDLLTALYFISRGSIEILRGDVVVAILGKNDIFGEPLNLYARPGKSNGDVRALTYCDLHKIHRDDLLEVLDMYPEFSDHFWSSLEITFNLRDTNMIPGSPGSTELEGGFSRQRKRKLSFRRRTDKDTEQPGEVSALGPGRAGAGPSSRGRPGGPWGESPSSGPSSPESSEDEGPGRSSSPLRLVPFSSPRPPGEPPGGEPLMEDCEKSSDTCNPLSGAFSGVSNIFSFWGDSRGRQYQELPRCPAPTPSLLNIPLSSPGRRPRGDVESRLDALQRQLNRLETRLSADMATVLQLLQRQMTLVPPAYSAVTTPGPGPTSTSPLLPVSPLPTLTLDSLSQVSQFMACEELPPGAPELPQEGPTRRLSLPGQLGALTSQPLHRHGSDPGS
Chain of Nuclear factor NF-kappa-B complex (Homo sapiens) (P19838 whole entry, looked up): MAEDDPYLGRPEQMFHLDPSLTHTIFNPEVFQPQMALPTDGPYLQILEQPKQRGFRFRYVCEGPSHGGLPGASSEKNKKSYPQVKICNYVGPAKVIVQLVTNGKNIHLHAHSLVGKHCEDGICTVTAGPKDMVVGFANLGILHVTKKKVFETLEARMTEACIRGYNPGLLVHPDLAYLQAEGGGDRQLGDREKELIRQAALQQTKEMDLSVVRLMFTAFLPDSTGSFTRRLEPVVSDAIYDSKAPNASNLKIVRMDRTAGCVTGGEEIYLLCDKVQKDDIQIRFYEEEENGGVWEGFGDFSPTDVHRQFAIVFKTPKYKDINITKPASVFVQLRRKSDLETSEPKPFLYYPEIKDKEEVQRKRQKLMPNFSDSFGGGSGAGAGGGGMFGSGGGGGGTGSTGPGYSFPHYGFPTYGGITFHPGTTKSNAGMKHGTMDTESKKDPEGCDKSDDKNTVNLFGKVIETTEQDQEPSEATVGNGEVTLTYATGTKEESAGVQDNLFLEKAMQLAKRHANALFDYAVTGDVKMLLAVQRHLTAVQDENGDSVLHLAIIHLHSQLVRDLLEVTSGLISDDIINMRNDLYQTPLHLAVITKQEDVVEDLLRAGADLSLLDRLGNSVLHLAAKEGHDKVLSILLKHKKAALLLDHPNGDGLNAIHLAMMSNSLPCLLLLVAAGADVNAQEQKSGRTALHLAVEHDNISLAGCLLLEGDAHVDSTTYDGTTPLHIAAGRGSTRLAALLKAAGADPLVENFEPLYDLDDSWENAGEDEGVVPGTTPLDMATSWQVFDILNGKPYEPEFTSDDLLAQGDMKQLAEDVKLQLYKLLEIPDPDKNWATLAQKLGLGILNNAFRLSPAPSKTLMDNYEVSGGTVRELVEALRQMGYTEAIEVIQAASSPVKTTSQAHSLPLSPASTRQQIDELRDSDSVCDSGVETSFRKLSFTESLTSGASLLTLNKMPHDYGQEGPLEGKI
Chain of Nuclear factor NF-kappa-B complex (Homo sapiens) (Q00653 whole entry, looked up): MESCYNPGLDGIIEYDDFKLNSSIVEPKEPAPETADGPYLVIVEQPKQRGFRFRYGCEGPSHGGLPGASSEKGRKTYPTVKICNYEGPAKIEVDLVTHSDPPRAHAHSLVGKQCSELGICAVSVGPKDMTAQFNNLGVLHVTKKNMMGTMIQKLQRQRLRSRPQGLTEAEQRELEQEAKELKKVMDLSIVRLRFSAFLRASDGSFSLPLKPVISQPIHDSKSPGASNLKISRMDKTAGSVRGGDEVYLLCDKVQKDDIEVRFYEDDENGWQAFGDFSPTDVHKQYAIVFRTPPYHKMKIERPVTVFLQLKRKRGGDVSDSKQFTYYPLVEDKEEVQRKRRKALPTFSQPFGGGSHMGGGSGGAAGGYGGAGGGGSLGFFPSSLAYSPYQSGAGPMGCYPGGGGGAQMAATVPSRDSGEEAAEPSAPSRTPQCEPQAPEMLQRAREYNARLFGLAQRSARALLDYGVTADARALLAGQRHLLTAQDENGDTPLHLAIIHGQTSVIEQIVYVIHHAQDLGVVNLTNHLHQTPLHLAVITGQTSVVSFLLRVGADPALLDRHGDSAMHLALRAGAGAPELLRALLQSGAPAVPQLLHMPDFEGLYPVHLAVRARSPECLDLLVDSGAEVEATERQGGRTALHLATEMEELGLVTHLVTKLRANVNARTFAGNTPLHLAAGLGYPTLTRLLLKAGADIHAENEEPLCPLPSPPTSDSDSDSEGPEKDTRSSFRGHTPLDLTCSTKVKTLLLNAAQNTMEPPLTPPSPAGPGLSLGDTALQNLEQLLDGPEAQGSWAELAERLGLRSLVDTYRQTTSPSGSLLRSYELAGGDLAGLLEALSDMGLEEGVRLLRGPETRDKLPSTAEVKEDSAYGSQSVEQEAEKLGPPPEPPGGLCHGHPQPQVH
Chain of Nuclear factor NF-kappa-B complex (Homo sapiens) (Q04206 whole entry, looked up): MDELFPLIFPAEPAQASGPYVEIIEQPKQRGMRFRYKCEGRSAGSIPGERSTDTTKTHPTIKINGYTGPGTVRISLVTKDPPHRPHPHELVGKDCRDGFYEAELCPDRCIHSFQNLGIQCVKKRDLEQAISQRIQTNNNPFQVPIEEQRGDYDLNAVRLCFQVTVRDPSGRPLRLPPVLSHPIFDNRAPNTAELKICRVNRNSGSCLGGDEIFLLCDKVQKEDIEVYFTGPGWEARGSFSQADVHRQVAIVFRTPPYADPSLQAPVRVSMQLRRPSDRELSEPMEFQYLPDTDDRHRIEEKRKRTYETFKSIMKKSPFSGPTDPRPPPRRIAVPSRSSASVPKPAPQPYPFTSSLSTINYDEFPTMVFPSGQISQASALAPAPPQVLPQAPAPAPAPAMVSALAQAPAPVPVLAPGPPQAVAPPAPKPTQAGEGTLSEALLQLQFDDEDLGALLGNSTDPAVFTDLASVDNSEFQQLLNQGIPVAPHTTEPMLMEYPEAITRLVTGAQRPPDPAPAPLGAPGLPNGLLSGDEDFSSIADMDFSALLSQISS
Chain of Cytochrome P450 3A4 (P08684 whole entry): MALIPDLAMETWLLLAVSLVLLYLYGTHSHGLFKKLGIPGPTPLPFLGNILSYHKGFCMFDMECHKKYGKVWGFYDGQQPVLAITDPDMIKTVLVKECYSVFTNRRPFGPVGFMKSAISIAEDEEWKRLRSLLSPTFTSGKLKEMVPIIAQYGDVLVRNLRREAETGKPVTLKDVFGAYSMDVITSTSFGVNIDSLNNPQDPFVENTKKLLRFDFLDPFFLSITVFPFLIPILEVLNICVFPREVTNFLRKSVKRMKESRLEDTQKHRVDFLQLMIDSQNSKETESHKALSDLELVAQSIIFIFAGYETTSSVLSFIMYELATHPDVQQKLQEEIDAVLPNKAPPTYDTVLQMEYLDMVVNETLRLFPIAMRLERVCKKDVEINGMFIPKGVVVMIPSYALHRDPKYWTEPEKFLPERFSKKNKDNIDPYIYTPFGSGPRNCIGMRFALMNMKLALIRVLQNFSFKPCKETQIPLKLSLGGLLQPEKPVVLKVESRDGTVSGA

Q: What does the source list for CCn1nc(C)cc1C(=O)Nc1nc2cc(C(N)=O)cc(OC)c2n1C/C=C/Cn1c(NC(=O)c2cc(C)nn2CC)nc2cc(C(N)=O)cc(OCCCNC(=O)OC(C)(C)C)c21?
A: Activity [1]: Non-Toxic; RLU [2]: 1.1; IC50 [3]: 0.0623 nM; Activity [4]: Active; IC50 [5]: 4200 nM; IC50 [6]: > 50000 nM; remaining at 0.5 h, 1 µM [7]: 38.7%; remaining at 0.5 h, 1 µM [8]: 11.2%; remaining at 4 h, 5 µM [9]: > 99%; EC50 [10]: 2 nM; Activity ([10]; filed as activator, dose 0.12-2000 nM, DDE = dose-dependent effect): Dde; Activity [11]: Dde; Activity [12]: Dde; Activity [13]: Active; Activity [14]: Active; Activity [15]: Active; Activity [16]: Active; Activity [17]: Active; Activity [18]: Active; Activity [19]: Active; Activity [20]: Active; Activity [21]: Active; Activity [22]: Active; Activity [23]: Active; Activity [24]: Active; CL [25]: 35.3 mL/min/kg; AUC(0-t) [26]: 4200 ng·h/mL; AUC [27]: 4780 ng·h/mL; Activity [28]: Active; Activity [29]: Non-Toxic; RLU [30]: 102

— ChEMBL document CHEMBL5154810, “Development of Potent Immune Modulators Targeting Stimulator of Interferon Genes Receptor” (J Med Chem, 2022)
